What all share (assay): greenhouse post-emergence herbicidal test
The test system of assay [1] is ECHCG. Format: in vivo, Echinochloa crus-galli. Particulars: application rate 0.177 kg/ha, scale 0 to 100. An excerpt:
(§1) The culture containers used were plastic flowerpots containing loamy sand with approximately 3.0% of humus as the substrate. The seeds of the test plants were sown separately for each species.
(§2) For the post-emergence treatment, the test plants were first grown to a height of 3 to 15 cm, depending on the plant habit, and only then treated with the active ingredients which had been suspended or emulsified in water. For this purpose, the test plants were either sown directly and grown in the same containers, or they were first grown separately as seedlings and transplanted into the test containers a few days prior to treatment.
(§3) Depending on the species, the plants were kept at 10-25° C. or 20-35° C. The test period extended over 2 to 4 weeks. During this time, the plants were tended, and their response to the individual treatments was evaluated.
(§4) Evaluation was carried out using a scale from 0 to 100. 100 means no emergence of the plants, or complete destruction of at least the aerial moieties, and 0 means no damage, or normal course of growth. A good herbicidal activity is given at values of at least 70 and a very good herbicidal activity is given at values of at least 85.
(§5) The plants used in the greenhouse experiments belonged to the following species: […]

Assay [2] has as its system SETVI. Format: in vivo, Setaria viridis. Particulars: application rate 0.25 kg/ha, scale 0 to 100.
From the text: as §1, §2, §3, §4, §5

Assay [3] relates to GALAP. Format: in vivo, Galium aparine. Particulars: application rate 0.25 kg/ha, scale 0 to 100.
From the text: as §1, §2, §3, §4, §5

The text below walks through data of patent US8809535B2, “Substituted pyridines having herbicidal action” (BASF SE, priority 2010, dated 2014).

Take `O=c1oc2cccnc2c(O)c1-c1cccc(N2CCOCC2)c1C(F)(F)F` [Compound I-26]: in assay [1], the “herbicidal activity against ECHCG” value is “very good herbicidal activity (a very good herbicidal activity is given at values of at least 85)”. With `O=c1oc2cccnc2c(O)c1-c1cc(Cl)cc(N2CCOCC2)c1C(F)(F)F` [Compound I-49, 3-[5-chloro-3-morpholino-2-(trifluoromethyl)phenyl]-4-hydroxy-pyrano[3,2-b]pyridin-2-one], the “herbicidal activity against SETVI” value in assay [2] is listed as “very good herbicidal activity (a very good herbicidal activity is given at values of at least 85)”. Further, the “herbicidal activity against GALAP” value in assay [3] was “very good herbicidal activity (a very good herbicidal activity is given at values of at least 85)”.
